Source: paper PMC11930985 (Nature Communications, 2025)
Read-outs that look alike come from different tables or passages of the source.

Columns and labels:
CYP3A4 = tested on: CYP3A4; parameters: method as in Investigator's Brochure (IB) version 5.0; conditions: preliminary results; ref Investigator's Brochure (IB) version 5.0; cited from earlier work
AML patients = conditions: cited from earlier work; for Remissions (CR and CRi), patients: patients not eligible for intensive chemotherapy
AML/MDS patients = tested on: AML/MDS patients
Protocol: Safety assessments including standard clinical laboratory safety tests (hematology, biochemistry, coagulation, and urinalysis), physical examinations, vital signs (blood pressure, heart rate, respiration rate and temperature), and ECOG performance status were performed at baseline and throughout the study. Electrocardiograms were obtained at screening, Cycle 1 Day 1–4, 8, and 15, Cycle 2 Day 1, 8 and 15, at Day 1 of each cycle thereafter, (up to and including Cycle 15), and at Final Study Visit. QT prolongation was assessed using the Fridericia correction […] [34]. Severity of QTcF prolongation was defined as follows: Grade 1: maximum prolongation 450–480 ms; Grade 2: maximum prolongation 481-500 ms; Grade 3: ≥501 ms on at least two separate ECGs; Grade 4: ≥501 ms or >60 ms change from baseline, with Torsades de pointes, polymorphic ventricular tachycardia or signs/symptoms of serious arrythmia; Grade 5: Death.
Adverse events (AEs) were monitored starting at study enrolment until 28 days after end of treatment and graded according to the National Cancer Institute Common Terminology Criteria for Adverse Events (NCI-CTCAE) version 4.0. If drug-related toxicities continued beyond the follow-up period, patients were followed until all drug-related toxicities resolved to grade ≤1, stabilized or returned to baseline.

## Nc1ccn([C@@H]2O[C@H](CO)[C@@H](O)[C@@H]2O)c(=O)n1 [Cytarabine, reference compound]
CYP3A4
  Extensive metabolism by CYP3A4: does not
AML patients; R/R-AML
  Response rate: < 20%
AML patients
  Remissions (CR and CRi), patients: less than 35%
AML/MDS patients; LDAC cohorts
  Patients with cytarabine dose-reduced: 4
AML/MDS patients; human, in vivo
  Patients with cytarabine interrupted: 8
  Patients with cytarabine withdrawn: 1

## Nc1ncn([C@H]2C[C@H](O)[C@@H](CO)O2)c(=O)n1 [decitabine]
AML patients
  Remissions (CR and CRi), patients: less than 35%

## CC1(C)CCC(CN2CCN(c3ccc(C(=O)NS(=O)(=O)c4ccc(NCC5CCOCC5)c([N+](=O)[O-])c4)c(Oc4cnc5[nH]ccc5c4)c3)CC2)=C(c2ccc(Cl)cc2)C1 [venetoclax]
AML patients; HMA or LDAC plus venetoclax, venetoclax-naïve R/R-AML
  Response rate: 31%
AML patients; venetoclax added to less-intensive regimens (HMAs or LDAC), frontline
  Response rates: 60–75%

## Nc1ncn([C@@H]2O[C@H](CO)[C@@H](O)[C@H]2O)c(=O)n1 [azacitidine]
AML patients
  Remissions (CR and CRi), patients: less than 35%
